Values quoted from earlier work as cited in patent publication US20090239757A1, “Control Sequences Responding to AMP and Uses Thereof” (priority 2004, published 2009).
Residues, ends and D or L forms follow the SMILES beside them.

Test system: Gram-positive and Gram-negative bacteria
Conditions: U.S. Pat. No. 6,492,328; cited from earlier work

## CC[C@H](C)[C@H](NC(=O)CNC(=O)[C@H](CCCCN)NC(=O)[C@H](CCCNC(=N)N)NC(=O)[C@@H](NC(=O)[C@@H](NC(=O)[C@H](CCCNC(=N)N)NC(=O)[C@H](CCCNC(=N)N)NC(=O)[C@H](CC(C)C)NC(=O)[C@H](CC(N)=O)NC(=O)[C@@H](N)CCCCN)[C@@H](C)CC)[C@@H](C)CC)C(=O)N[C@@H](Cc1c[nH]cn1)C(=O)N[C@H](C(=O)N[C@H](C(=O)N[C@@H](CCCCN)C(=O)N[C@@H](CCCCN)C(=O)N[C@@H](Cc1ccc(O)cc1)C(=O)NCC(=O)O)[C@@H](C)CC)[C@@H](C)CC [Novispirin G10] (H-KNLRRIIRKGIHIIKKYG-OH; N-terminus assumed)
  antimicrobial activity: activity against both Gram-positive and Gram-negative bacteria
